Measured values: patent publication US20260375146A1, “COMBINATION OF COMPOUNDS FOR DEVELOPING IN VITRO MODELS OF THE BLOOD-BRAIN BARRIER” (HUN-REN SZEGEDI BIOLÓGIAI KUTATÓKÖZPONT, priority 2023, published 2026)
Like-named read-outs stand apart in the source and are kept apart here.

How the values were obtained:
Wnt/β-catenin signaling [1] = details: in vitro; cited from earlier work
stem cell-derived ECs = details: cited from earlier work
[2] = system: human stem cell-derived ECs; test: Impedance-based measurement of barrier integrity, human ECs; format: cell-based
Procedure: (§1) Real-time, label-free measurement of barrier integrity was performed in 96-well plates with integrated gold electrodes (E-plate 96: Agilent, cat #300600910) using an xCELLigence RTCA SP device (Agilent). Plates were coated with 0.2% gelatin (Sigma-Aldrich, cat #G2500) and the cell-free background was measured in culture medium for each well. Then, ECs were seeded in the plates at a density of 6×10^3 cells/well and grown until fully confluent, while receiving 50% PC-conditioned medium to acquire brain-like properties. […] For combinatorial treatments, the following concentrations were used: cAMP 250 µM, Ro […], Wnt-3a 300 ng/mL, Wnt-7a 300 ng/mL, LiCl 3 mM, RepSox 10 μM and A83-01 3 μM. For all further experiments on human ECs, combination of cAMP+Ro+LiCl+A83-01 treatment consisted of 250 μM cAMP+17.5 μM Ro+3 mM LiCl+3 μM A83-01. The readout of impedance measurements is cell index, a dimensionless parameter which correlates with the strength of cell-cell contacts and cell adhesion. Cell index was defined as Zn-Z0, where Zn is the impedance at time point n and Zo is the impedance of the cell-free background in each well. Cell index values were normalized to the last time point before treatment.

Wnt/β-catenin signaling [3] = test: Pharmacological inhibition of Wnt/β-catenin signaling, barrier integrity by impedance; format: cell-based, human; details: for interference with basal barrier integrity: no combination treatment, titrated inhibitor; for reduction of the effect of cAMP+Ro+LiCl+A83-01 on barrier integrity (impedance): role: inhibitor, ICG-001 5 μM or XAV 939 1 μM, co-treatment 48 h
Procedure: as §1
Wnt/β-catenin signaling was blocked at two different points using inhibitors ICG-001 (MedChemExpress, cat #HY-14428) and XAV 939 (MedChemExpress, cat #HY-15147). For the measurement of barrier integrity by impedance. ECs were cultured as described above. Confluent monolayers were treated with ICG-001 […] for 48 h at 37 °C, and impedance was measured at 10 kHz every 5 min using the xCELLigence RTCA SP device (Agilent) as described above. […] For the measurement of TEER and tracer permeability, EC-PC co-cultures were assembled and maintained as described above. On day 4, the luminal (blood) side of the model was incubated with the combination of cAMP+Ro+LiC+A83-01 or control medium supplemented with either 5 μM ICG-001 or 1 μM XAV 939 for 48 h at 37 °C. TEER and tracer permeability were then measured and calculated as described above.

Wnt/β-catenin signaling [4] = details: role: inhibitor; cited from earlier work
central nervous system = details: route of penetration across the BBB; cited from earlier work
[5] = system: EC-PC co-culture BBB model; test: Penetration of small molecule drugs across the BBB co-culture model; details: 1 μM drug; cAMP+Ro+LiCl+A83-01 vs control
Procedure: Assembly, maintenance and treatment of co-cultures were performed as described above. […] In B-A direction, samples from both compartments were collected at 60 min. In A-B direction, inserts were transferred to a new well with fresh buffer at 30 min, then at the end of the assay samples were collected from the donor (0-60 min) and acceptor compartments (0-30 min, 30-60 min). […] Drug concentrations were determined by standard calibration curves.
where CA is the concentration measured in the acceptor compartment, VA is the volume of the acceptor compartment (1.5 mL) and CD is the treatment concentration in the donor compartment at a given timepoint. […] Papp was then calculated as: […]
where A is the surface area of the insert available for permeability (1.12 cm^2). Efflux ratio was calculated by dividing Papp values in B-A direction by Papp values in A-B direction.
where nA.30, nA.60 and nD.60 are the amounts of substance (pmol) in the accentor compartment at 30 and 60 min as well as the donor compartment at 60 min, respectively, and nT is the amount of substance (pmol) present at the treatment solution at 0 min. In vitro Kp,uu,brain was then calculated as: […]
where CT is the concentration of a drug in the treatment solution at 0 min, CD is the concentration in the donor compartment at 60 min and R is recovery. Calculation of Pearson r^2 and Spearman r coefficients using data referenced in the legend FIG. 5d was performed in GraphPad Prism software (version 5.0).

[6] = system: human endothelial cell and brain pericyte co-culture BBB model; test: Early experiment: cAMP alone or with PDE4 inhibitor, normalized cell index; format: cell-based; details: PDE4 inhibitor together with cAMP; in particular within first 24 hours; data not shown
EC monolayers = details: alone, especially with astrocyte-conditioned medium; cited from earlier work
[7] = system: human stem cell-derived brain-like ECs; test: Albumin internalization in ECs; format: cell-based; details: MβCD 1 mM, 1 h
Procedure: ECs were cultured in 50% PC-conditioned medium on 35 mm glass bottom Petri dishes (Greiner Bio-One, cat #627860) coated with collagen IV (Sigma-Aldrich, cat #C5533, 100 ng/mL) and fibronectin (Sigma-Aldrich, cat #F1141, 25 μg/mL) at a seeding density of 5×10^4 cells/cm^2. […] After that, culture medium was removed and cells were incubated with Texas Red-conjugated BSA (TR-albumin; Invitrogen, cat #A23017, 5 μg/mL) dissolved in control medium for 2 h at 37 °C. For the final 20 minutes of incubation, Hoechst 33342 (Thermo Fisher, cat #H1399,2 μg/mL) was added to cells to counterstain nuclei. Cultures were washed twice in Ringer-HEPES supplemented with 1% FBS and live-cell imaging was performed immediately in the same buffer using a Leica TCS SP5 AOBS confocal laser scanning microscope equipped with a HCX PL APO 63× oil (NA=1.4) objective with the same parameters as described above. After live-cell imaging, cells were fixed with 3% paraformaldehyde for 15 min at room temperature and immunostained for caveolin-1 exactly as described above. […] Finally, ECs were lysed with 1% Triton X 100 in Milli-Q water and the fluorescent signal of internalized TR-albumin was quantified with a Fluorolog 3 spectrofluorometer (Horiba Jobin Yvon) at 592 nm excitation and 612 nm emission wavelengths. Concentrations of internalized TR-albumin were calculated using a standard calibration curve. […]

Molecule: O=C1Nc2cc(Br)ccc2C1=C1Nc2ccccc2C1=NO [6-BIO, 6-bromoindirubin-3-oxim]
- induction of barrier properties (Wnt/β-catenin signaling [1]): induce a subset of barrier properties

Molecule: Cc1cccc(-c2nn(C(=S)Nc3ccccc3)cc2-c2ccnc3ccccc23)n1 [A83-01, 3-(6-Methyl-2-pyridinyl)-N-phenyl-4-(4-quinolinyl)-1H-pyrazole-1-carbothioamide]
- junctional tightness (stem cell-derived ECs): elevate junctional tightness
- enhancement of the effect of cAMP+Ro on barrier integrity (impedance) [2]: did not enhance

Molecule: Cc1c[nH]c(-c2cnc(NCCNc3ccc(C#N)cn3)nc2-c2ccc(Cl)cc2Cl)n1 [CHIR99021]
- induction of barrier properties (Wnt/β-catenin signaling [1]): induce a subset of barrier properties

Molecule: O=C1[C@H](Cc2ccc(O)cc2)N2C(=O)CCN(C(=O)NCc3ccccc3)[C@H]2CN1Cc1cccc2ccccc12 [ICG-001]
- interference with basal barrier integrity (Wnt/β-catenin signaling [3]): do not interfere with basal barrier integrity
- reduction of the effect of cAMP+Ro+LiCl+A83-01 on barrier integrity (impedance) (Wnt/β-catenin signaling [3]): moderately
- point of inhibition of Wnt signaling (Wnt/β-catenin signaling [4]): specifically inhibits the β-catenin-CREB-binding protein (CBP) interaction in the nucleus

Molecule: COc1ccc2c(c1)c(CC(=O)O)c(C)n2C(=O)c1ccc(Cl)cc1 [Indomethacin]
- BBB transport (central nervous system): Passive lipophilic

Molecule: Nc1nnc(-c2cccc(Cl)c2Cl)c(N)n1 [Lamotrigine]
- BBB transport (central nervous system): Passive lipophilic

Molecule: [Cl-].[Li+] [LiCl, lithium chloride]
- induction of barrier properties (Wnt/β-catenin signaling [1]): induce a subset of barrier properties
- enhancement of the effect of cAMP+Ro on barrier integrity (impedance) ([2]; added to cAMP+Ro): did not enhance

Molecule: CN(C)C(=O)C(CCN1CCC(O)(c2ccc(Cl)cc2)CC1)(c1ccccc1)c1ccccc1 [Loperamide]
- efflux ratio, change on combination treatment [5]: elevated
- permeability (Papp), blood-to-brain (A-B), change on combination treatment [5]: lower permeability
- BBB transport (central nervous system): Passive hydrophilic, efflux

Molecule: CC(C)NCC(O)COc1cccc2ccccc12 (stereo not shown) [Propranolol]
- permeability (Papp), blood-to-brain (A-B), change on combination treatment [5]: increased the permeability
- BBB transport (central nervous system): Passive lipophilic

Molecule: Cc1cccc(-c2[nH]ncc2-c2ccc3ncccc3n2)n1 [RepSox]
- junctional tightness (stem cell-derived ECs; stem cell-derived ECs, via claudin-5): elevate junctional tightness

Molecule: CCCCOc1cc(CC2CNC(=O)N2)ccc1OC (stereo not shown) [Ro 20-1724, 4-(3-Butoxy-4-methoxybenzyl)imidazolidin-2-one]
- barrier integrity as normalized cell index, further increase over cAMP alone [6]: further increases barrier integrity
- resistance across EC monolayers (EC monolayers): increase resistance across EC monolayers

Molecule: O=C(O)c1ccccc1O [Salicylic acid]
- permeability (Papp), blood-to-brain (A-B), change on combination treatment [5]: lower permeability
- BBB transport (central nervous system): Efflux, influx

Molecule: Nc1c2c(nc3ccccc13)CCCC2 [Tacrine]
- permeability (Papp), blood-to-brain (A-B), change on combination treatment [5]: increased the permeability
- BBB transport (central nervous system): Influx

Molecule: CC[C@]1(O)C[C@@H]2CN(CCc3c([nH]c4ccccc34)[C@@](C(=O)OC)(c3cc4c(cc3OC)N(C)[C@H]3[C@@](O)(C(=O)OC)[C@H](OC(C)=O)[C@]5(CC)C=CCN6CC[C@]43[C@@H]65)C2)C1 [Vinblastine]
- efflux ratio, change on combination treatment [5]: trend
- permeability (Papp), blood-to-brain (A-B), change on combination treatment [5]: lower permeability
- BBB transport (central nervous system): Efflux

Molecule: Oc1nc(-c2ccc(C(F)(F)F)cc2)nc2c1CSCC2 [XAV 939]
- interference with basal barrier integrity (Wnt/β-catenin signaling [3]): do not interfere with basal barrier integrity
- reduction of the effect of cAMP+Ro+LiCl+A83-01 on barrier integrity (impedance) (Wnt/β-catenin signaling [3]): more potently reduced the effect of the combination of cAMP+Ro+LiCl+A83-01, almost to the level of cAMP+Ro treatment
- point of inhibition of Wnt signaling (Wnt/β-catenin signaling [4]): blocks the pathway upstream of nuclear translocation

Molecule: C=C[C@@]1(C)CC(=O)[C@]2(O)[C@@]3(C)[C@@H](O)CCC(C)(C)[C@@H]3[C@H](O)[C@H](OC(C)=O)[C@@]2(C)O1 [forskolin]
- resistance across EC monolayers (EC monolayers): increase resistance across EC monolayers

Molecule: Methotrexate
- efflux ratio, change on combination treatment [5]: elevated
- BBB transport (central nervous system): Efflux

Molecule: methyl-β-cyclodextrin [methyl-p-cyclodextrin]
- inhibition of albumin internalization (lipid raft/caveolin-mediated endocytosis) [7]: sensitive

B1: Wnt-3a: recombinant human Wnt-3a protein (protein, UniProt P56704 19-352, looked up)
Protein Wnt-3a: SYPIWWSLAVGPQYSSLGSQPILCASIPGLVPKQLRFCRNYVEIMPSVAEGIKIGIQECQHQFRGRRWNCTTVHDSLAIFGPVLDKATRESAFVHAIASAGVAFAVTRSCAEGTAAICGCSSRHQGSPGKGWKWGGCSEDIEFGGMVSREFADARENRPDARSAMNRHNNEAGRQAIASHMHLKCKCHGLSGSCEVKTCWWSQPDFRAIGDFLKDKYDSASEMVVEKHRESRGWVETLRPRYTYFKVPTERDLVYYEASPNFCEPNPETGSFGTRDRTCNVSSHGIDGCDLLCCGRGHNARAERRREKCRCVFHWCCYVSCQECTRVYDVHTCK
- induction of barrier properties (Wnt/β-catenin signaling [1]): induce a subset of barrier properties
